Experimental data from patent US8716231B2, “Use of benzo-fused heterocycle sulfamide derivatives for the treatment of pain” (Janssen Pharmaceutica NV, priority 2005, dated 2014).

Legend:
[1] = test system: Taxol®-induced mechanical allodynia; assay: Taxol Induced Peripheral Neuropathy Model (pilot), Von Frey testing; format: in vivo, Sprague-Dawley rats; conditions: Taxol 2 mg/kg i.p. days 1, 3, 5, 7 + HPMC vehicle; day 12 (baseline 16.42±2.14 g)
Procedure: In addition, the compound's effects on spontaneous locomotor activity was measured.
The animals were housed in polycarbonate plastic cages, 2 animals per cage, at a temperature of 18-26° C., 30-70% humidity, 12-hour light/dark cycle, with food and water available ad libityum.
On days 1, 3, 5, and 7, the rats received an ip (intraperitoneal) injection of Taxol® (2 mg/kg).
Two behavioral tests were performed: measurement of tactile sensitivity and spontaneous locomotor activity. At baseline and on Days 5 and 12 post-Taxol® injection, the animals underwent Von Frey testing for mechanical allodynia (according to the procedure as described in Chaplan, S R, Bach, F W, Pogrel, J W, Chung, J M, Yaksh, T L. Quantitative assessment of tactile allodynia in the rat paw. J Neurosci Meth, 53:55-63, 1994). Tactile sensitivity (i.e. mechanical allodynia) was measured using calibrated filaments touched to the plantar surface of the affected limb to determine paw withdrawal threshold. Briefly, the rats were placed in a Plexiglas cage with a wire mesh bottom and allowed to acclimate for 10 minutes. Once the animals settled, the plantar surface of the right hind paw was touched with a 2.0 g von Frey filament. […] Data were analyzed using two-way ANOVA, one-way ANOVA and Dunnett's test, with statistical significance at p<0.05.

Row | SMILES | melting point [°C] | paw withdrawal threshold (mechanical allodynia) [1] [g]
1 | NS(=O)(=O)NCC1CCc2ccccc2O1 (stereo not drawn) | 100 to 101 | –
2 | NS(=O)(=O)NCCC1COc2ccccc2O1 (stereo not drawn) | 101 to 103 | –
3 | NS(=O)(=O)NC[C@H]1COc2cc(Cl)c(Cl)cc2O1 | 119 to 121 | –
4 | CN(C)S(=O)(=O)NCC1COc2ccccc2O1 (stereo not drawn) | 76 to 78 | –
5 | CN(CC1COc2ccccc2O1)S(N)(=O)=O (stereo not drawn) | 97 to 98 | –
6 | CC(=O)O[C@H]1C(=O)[C@@]2(C)[C@H]([C@H](OC(=O)c3ccccc3)[C@]3(O)C[C@H](OC(=O)[C@H](O)[C@@H](NC(=O)c4ccccc4)c4ccccc4)C(C)=C1C3(C)C)[C@]1(OC(C)=O)CO[C@@H]1C[C@@H]2O [Taxol®, paclitaxel, reference compound] | – | 12.11 ± 4.92
